“Also recorded” adds a separate entry of the source. Read-outs that look alike come from different tables or passages of the source. Marks after values point to notes of the source that are not given here.
Columns and labels:
human DOR [1] = biological target: T1, human DOR (Homo sapiens, UniProt P41143); settings: cited from earlier work; for Emax for the DOR (95% CI) / EC50 / Functional Activity for DOR, Emax (95% CI) / Emax: Percent stimulation at 10 μM of the tested compound: [35S]GTPγS
T1 construct: expressed in transfected cells; host or cells: CHO cells (membrane preparation)

human DOR [2] = biological target: T1, human DOR; settings: cited from earlier work
human DOR [3] = biological target: T1, human DOR; experiment: [35S]GTPγS binding assay, functional activity for the DOR; type: biochemical; settings: for Emax: read-out: Functional Activity for DOR, Emax (95% CI)
Experimental: (§1) The human MOR, DOR, or KOR recombinant CHO cell pellets were resuspended in 50 mM Tris–HCl buffer containing 5 mM MgCl2, 1 mM ethylene glycol bis(2-aminoethyl ether)-N,N,N,N-tetraacetic acid (EGTA), pH 7.4. The cell suspensions were disrupted by use of a glassteflon homogeniser and centrifuged at 48,000× g for 15 min. The supernatant was discarded and the pellets were resuspended in buffer at a concentration of 5 mg protein/mL and stored at −80 °C until further use.
Human MOR, DOR, or KOR recombinant CHO cell membranes were incubated for 2 h at 25 °C in 0.25 mL of 50 mM Tris–HCl buffer containing 5 mM MgCl2, 1 mM EGTA, 100 mM NaCl, pH 7.4 with various concentrations of the tested compound, 30 μM guanosine 5-diphosphate (GDP) and 0.1 nM [^35S]GTPγS (PerkinElmer, Inc.). The incubation was terminated by collecting membranes on Filtermat B filter (PerkinElmer, Inc.) using a FilterMate™ harvester (Perkin Elmer, Inc.). The filters were then washed three times with 50 mM Tris–HCl buffer, pH 7.4. Then, MeltiLex scintillant (PerkinElmer, Inc.) was melted onto the dried filters. Radioactivity was determined by a MicroBeta scintillation counter (PerkinElmer, Inc.). EC50, Emax, and 95% CI values were calculated by Prism software (version 5.0). Nonspecific binding was measured in the presence of 10 μM unlabeled GTPγS (PerkinElmer, Inc.).

human KOR = biological target: T2, human KOR (Homo sapiens, UniProt P41145); experiment: Competitive binding assay, [3H]U69,593 displacement, KOR
T2 construct: expressed in transfected cells; host or cells: CHO cells (membrane preparation)
Experimental: as §1
(§2) Human MOR, DOR, or KOR recombinant CHO cell membranes were incubated for 2 h at 25 °C in 0.25 mL of the buffer containing with various concentrations of the tested compound, 2 nM [^3H] DAMGO, [^3H] […] U69,593 (PerkinElmer, Inc., MA, USA), respectively. The incubation was terminated by collecting membranes on Filtermat B filter (PerkinElmer, Inc.) using a FilterMate™ harvester (PerkinElmer, Inc.). The filters were then washed three times with 50 mM Tris–HCl buffer, pH 7.4. Then, MeltiLex scintillant (PerkinElmer, Inc.) was melted onto the dried filters. Radioactivity was determined by a MicroBeta scintillation counter (PerkinElmer, Inc.). […] Ki and 95% CI values were calculated by Prism software (version 5.0).

human DOR [4] = biological target: T1, human DOR; experiment: Competitive binding assay, [3H]DPDPE displacement, DOR
Experimental: as §1, §2

human MOR = biological target: T3, human MOR (Homo sapiens, UniProt P35372); experiment: Competitive binding assay, [3H]DAMGO displacement, MOR
T3 construct: expressed in transfected cells; host or cells: CHO cells (membrane preparation)
Experimental: as §1, §2

[5] = read-out: EC50 for the DOR (95% CI)
[6] = read-out: Ki for the DOR (95% CI)
[7] = read-out: Functional Activity for DOR, EC50 (95% CI), human DOR recombinant CHO cell membrane
[8] = read-out: Binding Affinity, Ki (DOR) (95% CI), [3H]DPDPE, CHO cells expressing human DOR

| Compound | Emax for the DOR (95% CI) (human DOR [1]) [%] | Ki (human DOR [2]; [6]) [nM] | Functional activity for the DOR, in words (human DOR [3]; [35S]GTPγS) | Ki (human KOR) [nM] | Ki (human DOR [4]) [nM] | Ki (human MOR) [nM] | Emax (human DOR [3]) [%] | further results |
| --- | --- | --- | --- | --- | --- | --- | --- | --- |
| O=C(c1ccccc1)N1CC[C@]23c4c5ccc(O)c4O[C@H]2c2[nH]c4ccccc4c2C[C@@]3(O)[C@H]1C5 [SYK-736] | −92.7 | 290 | – | – | – | – | – | EC50 (human DOR [1]; [5]): 322 nM |
| O=S(=O)(N1CCC23c4c5ccc(O)c4OC2c2[nH]c4ccccc4c2CC3(O)C1C5)C(F)(F)F (stereo not drawn) [9b, 6,7-Didehydro-4,5α-epoxy-17-(1,1,1-trifluoromethylsulfonyl)indolo[2′,3′:6,7]morphinan-3,14β-diol] | – | – | inverse agonist activities | 675 | 365 | 11800 | – | Emax at 10 µM (human DOR [3]; read-out: Emax: Percent stimulation at 10 μM of the tested compound, [35S]GTPγS, 10 μM): -36.1% |
| C=CCN1CC[C@]23c4c5ccc(O)c4O[C@H]2c2[nH]c4ccccc4c2C[C@@]3(O)[C@H]1C5 [SYK-706] | – | – | – | – | – | – | – | Functional Activity for DOR, Emax (95% CI) (human DOR [1]): 16.2%; EC50 (human DOR [1]; [7]): 101 nM; Ki (human DOR [2]; [8]): 0.609 nM |
| O=C(Cc1ccccc1)N1CC[C@]23c4c5ccc(O)c4O[C@H]2c2[nH]c4ccccc4c2C[C@@]3(O)[C@H]1C5 [SYK-754] | 88.5 | 89 | – | – | – | – | – | Functional activity for the DOR, in words (human DOR [1]): DOR full agonist with moderate potency; EC50 (human DOR [1]; [5]): 127 nM |
| CC(=O)N1CC[C@]23c4c5ccc(O)c4O[C@H]2c2[nH]c4ccccc4c2C[C@@]3(O)[C@H]1C5 [SYK-747] | – | 977 | – | – | – | – | – | Emax: Percent stimulation at 10 μM of the tested compound (human DOR [1]): −4.86% |
| O=S(=O)(C1CC1)N1CCC23c4c5ccc(O)c4OC2c2[nH]c4ccccc4c2CC3(O)C1C5 (stereo not drawn) [9f, 17-(Cyclopropylsulfonyl)-6,7-didehydro-4,5α-epoxyindolo[2′,3′:6,7]morphinan-3,14β-diol] | – | – | inverse agonist activities; also recorded: almost full inverse agonists | 13.6 | 7.44 | 3900 | -80.5 | EC50 (human DOR [3]): 1.59 nM; Functional activity category for the DOR (by Emax) (human DOR [3]; [35S]GTPγS): full inverse agonist (full inverse agonist (−80% ≥ Emax)); Affinity for the DOR, fold lower than that of the mother compound NTI (human DOR [4]; Ki compared with NTI): over 10 fold |
| Oc1ccc2c3c1O[C@H]1c4[nH]c5ccccc5c4C[C@@]4(O)[C@@H](C2)N(CC2CC2)CC[C@]314 [NTI, naltrindole] | – | – | – | – | – | – | – | Emax: Percent stimulation at 10 μM of the tested compound (human DOR [1]): 7.50 ^h %; Functional activity for the DOR, in words (human DOR [1]): neutral antagonist |
| O=S(=O)(CCc1ccccc1)N1CCC23c4c5ccc(O)c4OC2c2[nH]c4ccccc4c2CC3(O)C1C5 (stereo not drawn) [9e, 6,7-Didehydro-4,5α-epoxy-17-((2-phenylethyl)sulfonyl)indolo[2′,3′:6,7]morphinan-3,14β-diol] | – | – | DOR agonists; also recorded: full DOR agonist activity with moderate potency | 17800 | 132 | 1400 | 88.1 | EC50 (human DOR [3]): 75.8 nM; Functional activity category for the DOR (by Emax) (human DOR [3]; [35S]GTPγS): full agonist |
| Oc1ccc2c3c1O[C@H]1c4[nH]c5ccccc5c4C[C@@]4(O)[C@@H](C2)N(CCCc2ccccc2)CC[C@]314 [SYK-903] | – | – | – | – | 166 | – | 105 | EC50 (human DOR [3]): 7.37 nM |
| Oc1ccc2c3c1O[C@H]1c4[nH]c5ccccc5c4C[C@@]4(O)[C@@H](C2)N(CCc2ccccc2)CC[C@]314 [SYK-707] | – | – | – | – | – | – | – | Functional Activity for DOR, Emax (95% CI) (human DOR [1]): 40.3%; EC50 (human DOR [1]; [7]): 15.1 nM; Ki (human DOR [2]; [8]): 1.94 nM |
| O=S(=O)(c1ccccc1)N1CCC23c4c5ccc(O)c4OC2c2[nH]c4ccccc4c2CC3(O)C1C5 (stereo not drawn) [9c, 6,7-Didehydro-4,5α-epoxy-17-(phenylsulfonyl)indolo[2′,3′:6,7]morphinan-3,14β-diol] | – | – | neutral DOR antagonist | 95.6 | 49.6 | 20500 | – | – |
| O=C(C1CC1)N1CC[C@]23c4c5ccc(O)c4O[C@H]2c2[nH]c4ccccc4c2C[C@@]3(O)[C@H]1C5 [SYK-623] | −91.2 | 17.3 | – | – | – | – | – | Functional activity for the DOR, in words (human DOR [1]): full inverse agonist; Functional activity for the DOR, in words (human DOR [1]; listed as SKY-623): DOR full inverse agonist with high potency; EC50 (human DOR [1]; [5]): 0.969 nM |
| Oc1ccc2c3c1O[C@H]1c4[nH]c5ccccc5c4C[C@@]4(O)[C@@H](C2)N(CC(F)(F)F)CC[C@]314 [SYK-165] | −44.8 | – | – | – | – | – | – | – |
| C=CS(=O)(=O)N1CCC23c4c5ccc(O)c4OC2c2[nH]c4ccccc4c2CC3(O)C1C5 (stereo not drawn) [9g, 6,7-Didehydro-4,5α-epoxy-17-(ethenylsulfonyl)indolo[2′,3′:6,7]morphinan-3,14β-diol] | – | – | inverse agonist activities; also recorded: almost full inverse agonists | 59100 | 196 | 3570 | -80.2 | EC50 (human DOR [3]): 7.8 nM |
| O=C(CCc1ccccc1)N1CC[C@]23c4c5ccc(O)c4O[C@H]2c2[nH]c4ccccc4c2C[C@@]3(O)[C@H]1C5 [SYK-753] | 97.5 | 41.5 | – | – | – | – | – | EC50 (human DOR [1]; [5]): 132 nM |
| C=CC(=O)N1CC[C@]23c4c5ccc(O)c4O[C@H]2c2[nH]c4ccccc4c2C[C@@]3(O)[C@H]1C5 [SYK-836] | −86.2 | 1.16 | – | – | – | – | – | EC50 (human DOR [1]; [5]): 1.43 nM |
| Oc1ccc2c3c1O[C@H]1c4[nH]c5ccccc5c4C[C@@]4(O)[C@@H](C2)N(Cc2ccccc2)CC[C@]314 [SYK-619] | – | – | – | – | – | – | – | Functional Activity for DOR, Emax (95% CI) (human DOR [1]): −56.5%; EC50 (human DOR [1]; [7]): 16.1 nM; Ki (human DOR [2]; [8]): 15.8 nM |
| O=S(=O)(Cc1ccccc1)N1CCC23c4c5ccc(O)c4OC2c2[nH]c4ccccc4c2CC3(O)C1C5 (stereo not drawn) [9d, 17-(Benzylsulfonyl)-6,7-didehydro-4,5α-epoxyindolo[2′,3′:6,7]morphinan-3,14β-diol] | – | – | DOR agonists | 18800 | 734 | 5180 | 47.1 | Binding affinity for the DOR, in words (human DOR [4]): low |
| O=C(N1CC[C@]23c4c5ccc(O)c4O[C@H]2c2[nH]c4ccccc4c2C[C@@]3(O)[C@H]1C5)C(F)(F)F [SYK-752] | – | 7.84 | – | – | – | – | – | Emax: Percent stimulation at 10 μM of the tested compound (human DOR [1]): −1.10% |
| CS(=O)(=O)N1CCC23c4c5ccc(O)c4OC2c2[nH]c4ccccc4c2CC3(O)C1C5 (stereo not drawn) [9a, 6,7-Didehydro-4,5α-epoxy-17-(methylsulfonyl)indolo[2′,3′:6,7]morphinan-3,14β-diol] | – | – | inverse agonist activities | – | 284 | 10100 | -48.8 | EC50 (human DOR [3]): 0.468 nM |

— publication PMC7503831 (Molecules, 2020)
